One test concerns the target fMet-Leu-Phe receptor (Homo sapiens, UniProt P21462). In words: formyl peptide receptor binders – dose response (AID 519). The class given is functional.
The nature of a further test: cells. Type of test: functional.
In the next test the target is Kallikrein-7 (Homo sapiens, UniProt P49862). Put plainly: Fluorescence Intensity-based biochemical primary high throughput dose response assay to identify activators of kallikrein-7 (K7) zymogen.
Test [1] deals with T1, RNA-binding protein pos-1 (Caenorhabditis elegans, UniProt G5EF15).
T1 sequence (G5EF15 whole entry): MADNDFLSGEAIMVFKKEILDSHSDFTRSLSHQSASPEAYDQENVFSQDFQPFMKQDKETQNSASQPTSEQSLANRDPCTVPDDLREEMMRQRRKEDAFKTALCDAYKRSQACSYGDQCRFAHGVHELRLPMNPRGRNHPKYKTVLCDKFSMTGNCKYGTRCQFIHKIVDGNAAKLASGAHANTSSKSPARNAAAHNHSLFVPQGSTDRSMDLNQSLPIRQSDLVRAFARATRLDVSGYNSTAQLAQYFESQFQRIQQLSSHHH
Put plainly: disruptors of C. elegans POS-1 RNA interaction – biochemical, fluorescence polarization, dose response (AID 1964).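 Further: purified POS-1 fused to maltose binding protein made in E. coli; potency of compounds blocking POS-1 binding to fluorescent RNA.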

The target in test [2] is T2, Zinc finger protein mex-5 (Caenorhabditis elegans, UniProt Q9XUB2).
T2 sequence (Q9XUB2 whole entry): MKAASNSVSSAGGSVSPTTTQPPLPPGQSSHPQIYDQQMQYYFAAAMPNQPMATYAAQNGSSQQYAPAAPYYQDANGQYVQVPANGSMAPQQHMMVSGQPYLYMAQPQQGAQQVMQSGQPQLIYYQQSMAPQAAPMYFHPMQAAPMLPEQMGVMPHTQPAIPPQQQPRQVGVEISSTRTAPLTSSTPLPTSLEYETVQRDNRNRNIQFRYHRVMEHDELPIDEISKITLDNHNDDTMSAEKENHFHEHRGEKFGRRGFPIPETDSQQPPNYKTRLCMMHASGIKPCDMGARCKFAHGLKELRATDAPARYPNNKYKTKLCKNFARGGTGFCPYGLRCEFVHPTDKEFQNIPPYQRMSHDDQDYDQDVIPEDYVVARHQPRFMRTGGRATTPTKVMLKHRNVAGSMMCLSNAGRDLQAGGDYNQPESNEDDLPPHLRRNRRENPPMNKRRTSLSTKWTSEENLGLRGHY
In words: potency of MEX-5 RNA-binding blockers – biochemical, C. elegans, fluorescence polarization, dose response (AID 1960).

Test [3] has as its target Glucose-6-phosphate 1-dehydrogenase (Homo sapiens, UniProt P11413). In words: inhibition of Homo sapiens G6PD, dose series – biochemical, fluorescence, selectivity assay for P. falciparum G6PD inhibitor project, dose response (AID 504792). The class given is functional.
The target in test [4] is T3, Carboxy-terminal domain RNA polymerase II polypeptide A small phosphatase 1 (Homo sapiens, UniProt Q9GZU7).
T3 sequence (Q9GZU7 whole entry): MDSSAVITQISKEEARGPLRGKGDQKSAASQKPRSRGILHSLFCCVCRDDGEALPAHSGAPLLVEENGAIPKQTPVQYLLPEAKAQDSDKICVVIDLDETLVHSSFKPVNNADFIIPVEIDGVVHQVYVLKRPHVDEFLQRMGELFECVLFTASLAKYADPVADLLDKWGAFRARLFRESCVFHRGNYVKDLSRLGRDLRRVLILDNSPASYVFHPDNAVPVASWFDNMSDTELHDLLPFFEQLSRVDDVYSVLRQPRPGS
Put plainly: CTDSP1 inhibitors, concentration-response, biochemical, absorbance readout, ultra-high-throughput screen actives (AID 540297). The class given is functional.

Test [5] deals with 1-phosphatidylinositol 4,5-bisphosphate phosphodiesterase gamma-1 (Homo sapiens, UniProt P19174). Put plainly: Counterscreen for inhibitors of phospholipase C isozymes (PLC-B3): Fluorescence-based biochemical high throughput dose response assay to identify inhibitors of phospholipase C isozymes (PLC-gamma1). (The purpose of a counterscreen is to sort out artefacts and off-target activity.)

In test [6] the target is 1-phosphatidylinositol 4,5-bisphosphate phosphodiesterase beta-3 (Homo sapiens, UniProt Q01970). Put plainly: Fluorescence-based biochemical high throughput dose response assay to identify inhibitors of phospholipase C isozymes (PLC-B3).
Test [7] addresses T4, Microphthalmia-associated transcription factor (Homo sapiens, UniProt O75030).
T4 sequence (O75030 whole entry): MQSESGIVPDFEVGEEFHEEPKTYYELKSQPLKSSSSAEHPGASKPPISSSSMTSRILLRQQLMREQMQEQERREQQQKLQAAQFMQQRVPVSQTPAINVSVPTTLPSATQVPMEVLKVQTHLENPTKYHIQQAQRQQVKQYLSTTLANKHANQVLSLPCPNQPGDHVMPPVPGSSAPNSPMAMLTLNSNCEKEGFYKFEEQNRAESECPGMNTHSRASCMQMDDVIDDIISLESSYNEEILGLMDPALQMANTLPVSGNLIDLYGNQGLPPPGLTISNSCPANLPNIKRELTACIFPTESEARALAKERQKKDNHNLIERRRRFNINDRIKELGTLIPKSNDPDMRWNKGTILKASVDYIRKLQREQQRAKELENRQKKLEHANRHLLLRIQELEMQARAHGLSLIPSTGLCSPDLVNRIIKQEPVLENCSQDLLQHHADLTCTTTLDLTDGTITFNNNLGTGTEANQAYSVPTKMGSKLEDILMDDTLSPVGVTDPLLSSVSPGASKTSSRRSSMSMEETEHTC
Put plainly: reducers of TRPM1 reporter luminescence, concentration series – cell-based, SK-MEL-5, cherry-picked, set 3, MITF inhibitor project, dose response (AID 493073).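 Further: SK-MEL-5 melanoma cells with luciferase driven by the MITF target TRPM1 promoter.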 Type of test: functional.

The nature of test [8]: reduction of Shn3 3'UTR-driven luciferase in osteoblasts – cell-based, Clone20 osteoblasts, firefly luciferase, cherry-picked, dose response (AID 624132).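 Further: firefly luciferase luminescence from reporter carrying the Shn3 3'UTR in osteoblasts.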 Type of test: functional.
Another test concerns the target Paired box protein Pax-8 (Homo sapiens, UniProt Q06710). In words: PAX8 transcriptional activity inhibition in RMG-I – RMG-I cells, luciferase, cherry-pick, dose response (AID 687027).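 Further: luciferase reporter driven by Pax8 target thyroperoxidase promoter measured by SteadyGlo luminescence.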 The class given is functional, cell-based.
Test [9] is described as follows: Shn3 3'UTR reporter signal decrease – cell-based, Clone20 osteoblasts, firefly luciferase, cherry-pick, set 2, Schnurri-3 inhibitor project, dose response (AID 720490).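 Further: actives lower the luminescence signal as inhibitors.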 The class given is functional.
Test [10] addresses Glutathione-S-transferase (Schistosoma japonicum, UniProt Q26513). Put plainly: GST-antibody interaction or FRET quenching – biochemical, TR-FRET, artefact control for Vif-APOBEC3G degradation inhibitor project, dose response (AID 1117362). The class given is functional.
The target of test [11] is T5, Heat shock factor protein 1 (Mus musculus, UniProt P38532).
T5 sequence (P38532 whole entry): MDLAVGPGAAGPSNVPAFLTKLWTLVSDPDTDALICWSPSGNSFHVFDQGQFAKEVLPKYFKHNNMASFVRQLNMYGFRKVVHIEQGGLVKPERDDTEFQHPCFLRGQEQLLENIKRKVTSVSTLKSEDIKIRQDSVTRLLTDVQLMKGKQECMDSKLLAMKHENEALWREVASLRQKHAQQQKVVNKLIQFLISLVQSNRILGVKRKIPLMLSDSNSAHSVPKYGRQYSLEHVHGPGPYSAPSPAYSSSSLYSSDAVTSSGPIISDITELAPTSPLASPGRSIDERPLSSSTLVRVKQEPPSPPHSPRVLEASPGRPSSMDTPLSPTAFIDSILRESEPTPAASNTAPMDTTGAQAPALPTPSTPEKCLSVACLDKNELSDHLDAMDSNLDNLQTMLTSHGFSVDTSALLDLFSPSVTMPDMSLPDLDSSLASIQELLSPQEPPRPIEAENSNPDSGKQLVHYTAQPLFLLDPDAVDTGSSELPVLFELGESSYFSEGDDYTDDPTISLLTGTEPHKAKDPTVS
Put plainly: enhancement of HSF1-driven luciferase signal – cell-based, NIH3T3, luminescence, dose retest, confirmation (AID 435004).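 Further: stress induced by proteasome inhibitor MG132 added 30 min after compound; luciferase reporter driven by HSF1 response element in NIH3T3 cells; actives raise luminescence as potentiators of the MG132 stress response.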 Type of test: functional.

Test [12] concerns Vero. In words: cells. As to conditions: Chlorocebus sabaeus. Type of test: functional, cell-based.
Test [13] deals with Vero. Put plainly: cells. As to conditions: Chlorocebus sabaeus. The class given is functional.
A short description of test [14]: viability loss in HepG2 hepatoma cells – cell-based, ATP luminescence, cherry-pick, activator set 2, cytotoxicity control, dose response (AID 1053143). Type of test: functional.
The target of another test is Nonstructural protein 1 (Influenza A virus, UniProt Q194T2). Type of test: functional, Influenza A virus (A/California/07/2009(H1N1)).
The target in test [15] is Ras and Rab interactor 1/Tyrosine-protein kinase ABL1 (Homo sapiens, UniProt P00519+Q13671). The class given is functional.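 Further: biochemical TR-FRET dose-response test measuring inhibition of binding between Rin1 and Abl proteins.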

Active and inactive are the calls of the source.

Sequence of Glutathione-S-transferase (Q26513 whole entry): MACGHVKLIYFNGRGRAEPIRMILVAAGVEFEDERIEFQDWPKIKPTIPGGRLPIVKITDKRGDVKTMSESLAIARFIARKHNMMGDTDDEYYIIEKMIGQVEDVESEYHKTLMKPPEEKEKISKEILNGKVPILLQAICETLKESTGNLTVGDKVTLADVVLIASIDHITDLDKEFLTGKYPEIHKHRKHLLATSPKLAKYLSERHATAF
Sequence of Paired box protein Pax-8 (Q06710 whole entry): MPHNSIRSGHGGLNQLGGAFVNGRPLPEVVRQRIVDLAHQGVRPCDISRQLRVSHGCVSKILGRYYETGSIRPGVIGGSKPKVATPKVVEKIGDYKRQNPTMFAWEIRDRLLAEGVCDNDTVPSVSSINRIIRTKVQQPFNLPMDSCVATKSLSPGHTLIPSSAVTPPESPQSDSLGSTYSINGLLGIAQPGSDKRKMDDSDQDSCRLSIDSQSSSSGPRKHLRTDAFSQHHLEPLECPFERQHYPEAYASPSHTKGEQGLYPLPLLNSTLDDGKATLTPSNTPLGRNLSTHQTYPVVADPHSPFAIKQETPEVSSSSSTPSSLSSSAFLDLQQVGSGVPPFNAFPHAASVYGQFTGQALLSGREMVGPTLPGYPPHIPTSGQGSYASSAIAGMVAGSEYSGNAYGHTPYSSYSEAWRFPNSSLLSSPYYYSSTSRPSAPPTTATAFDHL
Sequence of Nonstructural protein 1 (Q194T2 whole entry): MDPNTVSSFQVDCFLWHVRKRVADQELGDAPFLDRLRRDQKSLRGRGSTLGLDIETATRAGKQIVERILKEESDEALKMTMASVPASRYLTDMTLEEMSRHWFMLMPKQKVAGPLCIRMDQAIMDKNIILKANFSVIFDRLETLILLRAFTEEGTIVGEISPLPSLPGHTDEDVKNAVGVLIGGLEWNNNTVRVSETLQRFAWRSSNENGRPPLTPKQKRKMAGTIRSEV
Sequence of 1-phosphatidylinositol 4,5-bisphosphate phosphodiesterase gamma-1 (P19174 whole entry): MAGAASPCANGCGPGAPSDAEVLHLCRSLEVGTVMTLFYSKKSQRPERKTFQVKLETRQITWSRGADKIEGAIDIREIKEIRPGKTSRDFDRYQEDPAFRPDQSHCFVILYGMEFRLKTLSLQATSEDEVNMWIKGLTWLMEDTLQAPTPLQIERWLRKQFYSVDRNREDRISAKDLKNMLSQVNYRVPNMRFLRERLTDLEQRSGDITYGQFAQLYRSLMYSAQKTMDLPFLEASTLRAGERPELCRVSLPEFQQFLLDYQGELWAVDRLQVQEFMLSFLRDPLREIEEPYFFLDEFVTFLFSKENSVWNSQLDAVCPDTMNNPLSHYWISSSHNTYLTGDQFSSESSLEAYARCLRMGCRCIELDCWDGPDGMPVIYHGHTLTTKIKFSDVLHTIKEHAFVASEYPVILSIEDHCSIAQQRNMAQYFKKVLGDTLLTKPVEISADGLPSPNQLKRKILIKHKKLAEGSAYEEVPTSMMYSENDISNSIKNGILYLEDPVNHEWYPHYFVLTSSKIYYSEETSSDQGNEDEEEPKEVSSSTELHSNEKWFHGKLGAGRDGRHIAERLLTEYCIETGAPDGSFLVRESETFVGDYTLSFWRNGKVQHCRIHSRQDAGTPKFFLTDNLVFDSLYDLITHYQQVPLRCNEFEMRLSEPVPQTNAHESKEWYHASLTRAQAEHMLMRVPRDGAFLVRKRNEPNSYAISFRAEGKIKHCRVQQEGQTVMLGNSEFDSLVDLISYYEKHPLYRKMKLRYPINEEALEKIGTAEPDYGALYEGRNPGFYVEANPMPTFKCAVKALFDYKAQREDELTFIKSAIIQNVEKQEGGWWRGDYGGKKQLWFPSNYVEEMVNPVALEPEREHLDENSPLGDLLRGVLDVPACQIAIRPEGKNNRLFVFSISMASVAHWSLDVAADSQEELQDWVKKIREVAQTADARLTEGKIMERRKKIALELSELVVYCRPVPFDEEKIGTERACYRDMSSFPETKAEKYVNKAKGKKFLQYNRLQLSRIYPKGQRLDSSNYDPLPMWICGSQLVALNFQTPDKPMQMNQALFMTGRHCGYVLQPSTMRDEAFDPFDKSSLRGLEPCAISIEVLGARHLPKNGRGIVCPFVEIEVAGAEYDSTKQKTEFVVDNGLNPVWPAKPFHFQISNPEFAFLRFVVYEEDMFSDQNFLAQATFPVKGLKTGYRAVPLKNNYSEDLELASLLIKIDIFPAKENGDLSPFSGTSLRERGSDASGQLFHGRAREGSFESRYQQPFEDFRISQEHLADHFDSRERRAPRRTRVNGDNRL
Sequence of Kallikrein-7 (P49862 whole entry): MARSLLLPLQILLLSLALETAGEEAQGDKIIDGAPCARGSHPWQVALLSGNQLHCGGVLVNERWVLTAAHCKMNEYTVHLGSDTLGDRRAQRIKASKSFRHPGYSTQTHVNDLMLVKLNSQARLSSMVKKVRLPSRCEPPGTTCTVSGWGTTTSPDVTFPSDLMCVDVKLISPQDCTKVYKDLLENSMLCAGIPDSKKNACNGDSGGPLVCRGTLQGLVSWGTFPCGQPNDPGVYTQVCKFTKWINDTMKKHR
Sequence of Ras and Rab interactor 1/Tyrosine-protein kinase ABL1 (P00519 whole entry): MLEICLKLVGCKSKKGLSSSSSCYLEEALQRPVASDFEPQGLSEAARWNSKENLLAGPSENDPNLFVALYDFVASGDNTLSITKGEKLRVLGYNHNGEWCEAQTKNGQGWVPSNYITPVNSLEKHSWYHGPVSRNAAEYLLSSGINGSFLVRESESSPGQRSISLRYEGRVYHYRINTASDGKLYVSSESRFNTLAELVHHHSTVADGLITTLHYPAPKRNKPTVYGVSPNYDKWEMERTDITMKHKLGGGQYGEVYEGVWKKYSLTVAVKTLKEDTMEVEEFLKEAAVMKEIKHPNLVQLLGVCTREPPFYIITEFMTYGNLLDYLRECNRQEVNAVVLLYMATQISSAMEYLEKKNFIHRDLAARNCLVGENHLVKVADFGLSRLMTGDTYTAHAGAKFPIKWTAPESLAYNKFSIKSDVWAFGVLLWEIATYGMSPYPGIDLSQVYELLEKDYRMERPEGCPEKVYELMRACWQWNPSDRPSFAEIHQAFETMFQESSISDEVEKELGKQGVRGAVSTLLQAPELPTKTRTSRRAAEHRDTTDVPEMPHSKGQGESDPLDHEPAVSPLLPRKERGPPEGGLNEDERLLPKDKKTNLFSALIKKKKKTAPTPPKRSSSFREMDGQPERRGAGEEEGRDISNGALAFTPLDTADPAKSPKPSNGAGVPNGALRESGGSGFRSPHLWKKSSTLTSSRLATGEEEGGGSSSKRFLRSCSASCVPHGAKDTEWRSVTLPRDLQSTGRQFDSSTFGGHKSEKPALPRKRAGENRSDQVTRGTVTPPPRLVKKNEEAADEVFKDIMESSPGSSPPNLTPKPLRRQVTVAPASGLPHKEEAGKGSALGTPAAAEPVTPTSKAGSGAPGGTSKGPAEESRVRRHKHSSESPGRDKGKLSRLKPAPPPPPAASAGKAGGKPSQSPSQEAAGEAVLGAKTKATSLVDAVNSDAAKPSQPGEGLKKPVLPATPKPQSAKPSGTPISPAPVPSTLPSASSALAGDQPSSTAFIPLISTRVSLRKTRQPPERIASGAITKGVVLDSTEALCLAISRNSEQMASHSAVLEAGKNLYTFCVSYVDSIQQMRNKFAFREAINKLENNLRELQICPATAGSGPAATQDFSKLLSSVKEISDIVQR
Sequence of Ras and Rab interactor 1/Tyrosine-protein kinase ABL1 (Q13671 whole entry): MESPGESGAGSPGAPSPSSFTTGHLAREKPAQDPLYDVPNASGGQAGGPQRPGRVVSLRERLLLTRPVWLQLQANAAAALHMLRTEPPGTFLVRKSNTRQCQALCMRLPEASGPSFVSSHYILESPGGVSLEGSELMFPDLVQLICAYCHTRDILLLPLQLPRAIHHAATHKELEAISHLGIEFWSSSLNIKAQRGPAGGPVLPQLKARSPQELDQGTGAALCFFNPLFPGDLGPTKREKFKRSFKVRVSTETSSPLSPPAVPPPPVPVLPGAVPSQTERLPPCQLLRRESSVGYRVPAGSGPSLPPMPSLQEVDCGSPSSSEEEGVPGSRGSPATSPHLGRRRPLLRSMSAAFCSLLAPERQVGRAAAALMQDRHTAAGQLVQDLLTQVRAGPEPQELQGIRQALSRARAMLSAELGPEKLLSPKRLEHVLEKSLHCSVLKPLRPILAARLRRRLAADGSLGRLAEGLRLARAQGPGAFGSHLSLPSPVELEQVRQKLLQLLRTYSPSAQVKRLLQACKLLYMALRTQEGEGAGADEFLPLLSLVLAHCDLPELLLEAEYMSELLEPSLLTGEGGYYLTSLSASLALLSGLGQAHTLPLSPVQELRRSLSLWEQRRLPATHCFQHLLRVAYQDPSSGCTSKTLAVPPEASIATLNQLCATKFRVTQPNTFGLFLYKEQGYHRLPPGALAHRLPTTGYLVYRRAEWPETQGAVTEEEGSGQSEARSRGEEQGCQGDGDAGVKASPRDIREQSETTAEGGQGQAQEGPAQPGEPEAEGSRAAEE
Sequence of fMet-Leu-Phe receptor (P21462 whole entry): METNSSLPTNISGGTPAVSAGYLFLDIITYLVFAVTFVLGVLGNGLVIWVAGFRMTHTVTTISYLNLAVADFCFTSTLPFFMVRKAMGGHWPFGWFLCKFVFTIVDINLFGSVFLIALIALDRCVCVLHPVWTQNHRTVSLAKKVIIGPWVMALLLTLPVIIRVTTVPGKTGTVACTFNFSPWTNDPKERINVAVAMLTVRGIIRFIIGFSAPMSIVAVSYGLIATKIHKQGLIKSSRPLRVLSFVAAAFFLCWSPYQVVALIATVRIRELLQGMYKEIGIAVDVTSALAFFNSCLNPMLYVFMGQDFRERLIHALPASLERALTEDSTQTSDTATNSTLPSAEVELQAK

The term Ki denotes a dissociation constant, usually derived from enzyme kinetics or from competition with a known ligand. For the compound `CCc1cc2c(=O)c(-c3nc4ccccc4n3C)c(COCC(=O)O)oc2cc1OC(=O)C(C)(C)C`, at fMet-Leu-Phe receptor, the Ki was > 66.7 µM (inactive).

One may read the IC50 as the midpoint of a concentration-inhibition curve. What is called EC50 is the concentration at which the effect is half-maximal. As to `CCOC(=O)COc1ccc2c(c1)C(=O)CC1(CCCCC1)O2`, the 50% inhibitory concentration (IC50) in the test “cells” is 1.18 µM (active). Also, at Kallikrein-7, the EC50 is > 69.5 µM (inactive).

Regarding `O=C(O)c1ccc(-n2c(-c3cc(-c4ccco4)[nH]n3)n[nH]c2=S)cc1`, the EC50 is 4.19 µM (inconclusive) in test [1] and 4.74 µM (inconclusive) in test [2]. Also, the IC50 was > 80 µM (inactive) in test [3], 1.59 µM (active) in test [4], 102 µM (inactive) in [5] and > 122 µM (inactive) in test [6].

The AC50 is the concentration giving half of the maximal activity seen. Take `Cc1ccc(-c2cn3cc(C)ccc3n2)cc1`: the AC50 in [7] was 2.03 µM (active); in test [8], 1.32 µM (active); on Paired box protein Pax-8, 3.46 µM (active); in [9], 7.73 µM (active).

On to `CC[n+]1ccc(C)c2cc([S+]([O-])C(F)(F)F)ccc21` (stereo unspecified), for which, in test [10], the IC50 is 55.4 µM (active).

A word on the CC50: it is the concentration that lowers cell viability or growth by half. Consider `O=C(Nc1ccc(Cl)cn1)c1ccc([N+](=O)[O-])o1`, for which the EC50 in test [11] is 20.8 µM (active). For the same compound, the IC50 with Vero [12] is > 25 µM (active). For the same compound, in the test on Vero [13], the CC50 was 16.9 µM (active). For the same compound, in [14], the AC50 is 26 µM (active).

Regarding `Cc1c(F)cccc1NC(=O)CCCCCC1NC(=O)NC1C` (stereo unspecified), the IC50 at Nonstructural protein 1 is 1.18 µM (active); in test [15], 0.0143 µM (active); in [10], 29.8 µM (active).

The record behind these values is ChEMBL document CHEMBL1201862, “PubChem BioAssay data set” (2004).
